Source: patent publication US20050209278A1, “Piperidinyl- and piperazinyl-sulfonylmethyl hydroxamic acids and their use as protease inhibitors” (priority 2002, published 2005)

What was measured:
Assay type in all cases: biochemical
[1] = target: T1, MMP-1 (Homo sapiens, UniProt P03956); assay: MMP-1 inhibition (in vitro Ki); settings: Table 9; read-out: MMP-1 Ki (IC-50)
T1 construct: made in house; host or cells: MMP-1-transfected HT-1080 cells (spent media)
T1 sequence (P03956 100-469): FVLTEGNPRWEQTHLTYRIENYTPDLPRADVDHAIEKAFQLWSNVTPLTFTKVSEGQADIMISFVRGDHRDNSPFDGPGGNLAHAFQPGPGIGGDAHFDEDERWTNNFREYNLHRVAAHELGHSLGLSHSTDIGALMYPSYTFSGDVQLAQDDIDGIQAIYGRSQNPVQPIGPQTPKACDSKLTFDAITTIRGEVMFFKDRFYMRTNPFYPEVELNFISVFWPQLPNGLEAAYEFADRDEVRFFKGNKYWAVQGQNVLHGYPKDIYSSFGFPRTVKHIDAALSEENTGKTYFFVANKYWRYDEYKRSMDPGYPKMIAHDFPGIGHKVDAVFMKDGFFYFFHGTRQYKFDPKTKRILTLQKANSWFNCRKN

[2] = target: T2, MMP-2 (Homo sapiens, UniProt P08253); assay: MMP-2 inhibition (in vitro Ki); settings: Table 9; read-out: MMP-2 Ki (IC-50)
T2 construct: made in house; host or cells: MMP-2-transfected p2AHT2 cells
T2 sequence (P08253 110-660): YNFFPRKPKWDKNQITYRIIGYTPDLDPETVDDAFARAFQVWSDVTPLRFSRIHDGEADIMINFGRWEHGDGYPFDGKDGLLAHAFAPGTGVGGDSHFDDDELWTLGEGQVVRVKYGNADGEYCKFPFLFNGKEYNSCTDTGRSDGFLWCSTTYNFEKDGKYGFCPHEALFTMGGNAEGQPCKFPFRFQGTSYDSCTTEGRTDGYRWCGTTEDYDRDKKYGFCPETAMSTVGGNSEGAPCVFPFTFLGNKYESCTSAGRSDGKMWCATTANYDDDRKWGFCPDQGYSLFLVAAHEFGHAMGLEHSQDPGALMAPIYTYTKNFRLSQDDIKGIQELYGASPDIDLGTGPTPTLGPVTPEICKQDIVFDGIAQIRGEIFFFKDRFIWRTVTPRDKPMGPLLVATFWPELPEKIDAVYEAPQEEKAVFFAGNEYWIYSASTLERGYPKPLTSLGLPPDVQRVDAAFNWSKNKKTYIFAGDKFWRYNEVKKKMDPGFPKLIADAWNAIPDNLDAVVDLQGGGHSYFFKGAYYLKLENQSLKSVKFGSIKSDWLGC

[3] = target: T3, MMP-9 (Homo sapiens, UniProt P14780); assay: MMP-9 inhibition (in vitro Ki); settings: Table 9; read-out: MMP-9 Ki (IC-50)
T3 construct: made in house; host or cells: MMP-9-transfected HT1080 cells (spent media)
T3 sequence (P14780 107-707 limits assumed): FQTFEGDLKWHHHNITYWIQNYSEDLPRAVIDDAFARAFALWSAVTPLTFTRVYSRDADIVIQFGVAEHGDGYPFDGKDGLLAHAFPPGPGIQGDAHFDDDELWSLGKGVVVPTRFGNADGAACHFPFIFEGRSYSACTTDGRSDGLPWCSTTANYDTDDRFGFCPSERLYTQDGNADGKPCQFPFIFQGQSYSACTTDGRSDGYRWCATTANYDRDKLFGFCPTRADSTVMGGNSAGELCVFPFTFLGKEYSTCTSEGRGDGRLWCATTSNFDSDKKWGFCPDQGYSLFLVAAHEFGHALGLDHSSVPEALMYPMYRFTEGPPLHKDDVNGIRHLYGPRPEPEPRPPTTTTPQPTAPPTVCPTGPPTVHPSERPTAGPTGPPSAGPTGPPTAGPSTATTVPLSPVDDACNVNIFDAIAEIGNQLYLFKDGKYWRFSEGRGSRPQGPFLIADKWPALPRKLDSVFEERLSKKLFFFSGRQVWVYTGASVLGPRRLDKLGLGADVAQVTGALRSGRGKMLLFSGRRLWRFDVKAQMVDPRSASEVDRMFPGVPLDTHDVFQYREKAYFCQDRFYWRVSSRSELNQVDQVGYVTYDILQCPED

[4] = target: T4, MMP-13 (Homo sapiens, UniProt P45452); assay: MMP-13 inhibition (in vitro Ki); settings: Table 9; read-out: MMP-13 Ki (IC-50)
T4 construct: made in house; host or cells: baculovirus / insect cells

[5] = target: T5, MMP-14 (Homo sapiens, UniProt P50281); assay: MMP-14 inhibition (in vitro Ki); settings: Table 9; read-out: MMP-14 Ki (IC-50)
T5 construct: The catalytic domain enzyme was expressed in E. coli inclusion bodies, solubilized in urea; made in house

| SMILES | Ki [1] | Ki [2] | Ki [3] | Ki [4] | Ki [5] |
| --- | --- | --- | --- | --- | --- |
| O=C(NO)C1(S(=O)(=O)N2CCC(c3ccc(CCc4ccsc4)cn3)CC2)CCOCC1 [Example A95] | 7630 nM | 2.13 nM | 7.97 nM | 0.376 nM | 2270 nM |
| O=C(NO)C1(S(=O)(=O)N2CCC(c3ccc(CCc4ccccc4)cn3)CC2)CCOCC1 [Example A100] | > 10000 nM | 5.27 nM | 13.2 nM | 0.45 nM | 1770 nM |
| O=C(NO)C1(S(=O)(=O)N2CCC(c3ccc(CCc4cccs4)cn3)CC2)CCOCC1 [Example A102] | 6280 nM | 1.3 nM | 3.84 nM | 0.215 nM | 2160 nM |
| O=C(NO)C1(S(=O)(=O)N2CCC(c3ccc(CCC4CCCC4)cn3)CC2)CCOCC1 [Example A106] | 5460 nM | 0.54 nM | 1.05 nM | 0.14 nM | 1250 nM |
| COCC(=O)N1CCC(C(=O)NO)(S(=O)(=O)N2CCC(c3ccc(CCC(F)(F)C(F)(F)F)cn3)CC2)CC1 [Example A109] | 8300 nM | 0.6 nM | 26.8 nM | 0.42 nM | 3720 nM |
| O=C(NO)C1(S(=O)(=O)N2CCC(c3cnc(CCC4CC4)cn3)CC2)CCOCC1 [Example A110] | > 10000 nM | 7.78 nM | 1.03 nM | 4.4 nM | 9210 nM |
| CN(CC1CCCCC1)C(=O)CCCC1CCN(S(=O)(=O)C2(C(=O)NO)CCOCC2)CC1 [Example A111] | > 10000 nM | 364 nM | 1710 nM | 9.09 nM | > 10000 nM |
| O=C(NO)C1(S(=O)(=O)N2CCC(c3ccc(CCC(F)(F)C(F)(F)F)cn3)CC2)Cc2ccccc2C1 [Example A113] | 9730 nM | 1.28 nM | 0.8 nM | 0.34 nM | 4410 nM |
| O=C(NO)C1(S(=O)(=O)N2CCN(c3nnn(Cc4ccccc4)n3)CC2)CCOCC1 [Example A114] | 5410 nM | 0.38 nM | 0.94 nM | 0.8 nM | 1150 nM |
| O=C(NCCCCC1CCN(S(=O)(=O)C2(C(=O)NO)CCOCC2)CC1)C1(c2ccccc2)CC1 [Example A115] | > 10000 nM | 98.5 nM | 1350 nM | 0.81 nM | > 10000 nM |
| CC(C)CCc1cnc(C2CCN(S(=O)(=O)C3(C(=O)NO)CCOCC3)CC2)cn1 [Example A117] | > 10000 nM | 9.91 nM | 0.96 nM | 2.8 nM | > 10000 nM |
| O=C(CO)N1CCC(C(=O)NO)(S(=O)(=O)N2CCC(c3ccc(CCC(F)(F)C(F)(F)F)cn3)CC2)CC1 [Example A118] | 6600 nM | 0.56 nM | 0.4 nM | 0.18 nM | 3600 nM |
| O=C(CCCCN1CCN(S(=O)(=O)C2(C(=O)NO)CCOCC2)CC1)N1CCCCC1 [Example A119] | > 10000 nM | > 10000 nM | > 10000 nM | 154 nM | > 10000 nM |
| O=C(NO)C1(S(=O)(=O)N2CCC(c3ccc(CCC4CC4)cn3)CC2)CCOCC1 [Example A123] | 5160 nM | 0.58 nM | 0.08 nM | 0.43 nM | 1280 nM |
| CN(C(=O)CCCCN1CCN(S(=O)(=O)C2(C(=O)NO)CCOCC2)CC1)C1CCCCC1 [Example A125] | > 10000 nM | > 10000 nM | > 10000 nM | 106 nM | > 10000 nM |
| O=C(NO)C1(S(=O)(=O)N2CCC(c3ccc(C(F)(F)CCC(F)(F)F)cn3)CC2)CCOCC1 [Example A128] | 5190 nM | 3.33 nM | 8.82 nM | 0.84 nM | > 10000 nM |
| CN(C(=O)CCCN1CCN(S(=O)(=O)C2(C(=O)NO)CCOCC2)CC1)C1CCCCC1 [Example A130] | > 10000 nM | > 10000 nM | > 10000 nM | 2910 nM | > 10000 nM |
| Cc1ccc(N2CCC(C(=O)NO)(S(=O)(=O)N3CCC(c4ccc(CCC(F)(F)C(F)(F)F)cn4)CC3)CC2)cn1 [Example A131] | > 10000 nM | 1.2 nM | 0.57 nM | 0.34 nM | 1910 nM |

The next molecules have a lower Ki [1] than those just listed; values first:

| Ki [1] | Ki [2] | Ki [3] | Ki [4] | Ki [5] | SMILES |
| --- | --- | --- | --- | --- | --- |
| 4910 nM | 0.42 nM | 0.16 nM | 0.15 nM | 1280 nM | O=C(NO)C1(S(=O)(=O)N2CCC(c3ccc(CCC4CCC4)cn3)CC2)CCOCC1 [Example A120] |
| 4440 nM | 2.89 nM | 0.86 nM | 0.85 nM | 3370 nM | COCCC(CCOC)(C(=O)NO)S(=O)(=O)N1CCC(c2ccc(CCC(F)(F)C(F)(F)F)cn2)CC1 [Example A107] |
| 3100 nM | 0.37 nM | 0.27 nM | 0.12 nM | 2600 nM | CC(C)(C(=O)NO)S(=O)(=O)N1CCC(c2ccc(CCC(F)(F)C(F)(F)F)cn2)CC1 [Example A122] |
| 3040 nM | 3.42 nM | 0.59 nM | 3.11 nM | 7290 nM | CCC(CC)(C(=O)NO)S(=O)(=O)N1CCC(c2ccc(OCC3CC3)cn2)CC1 [Example A124] |
| 2820 nM | 197 nM | 823 nM | 1.18 nM | > 10000 nM | CN(C(=O)CCCCC1CCN(S(=O)(=O)C2(C(=O)NO)CCOCC2)CC1)c1ccccc1 [Example A94] |
| 2750 nM | 0.27 nM | 0.14 nM | 0.06 nM | 1300 nM | O=C(NO)C1(S(=O)(=O)N2CCC(c3ccc(CCC(F)(F)C(F)(F)F)cn3)CC2)CCC1 [Example A126] |
| 2170 nM | 0.52 nM | 0.18 nM | 0.23 nM | 1130 nM | O=C(NO)C1(S(=O)(=O)N2CCC(c3ccc(CCC(F)(F)F)cn3)CC2)CCCC1 [Example A105] |
| 1700 nM | 0.19 nM | 0.14 nM | 0.08 nM | 331 nM | O=C(NO)C1(S(=O)(=O)N2CCC(c3ccc(/C=C/C(F)(F)C(F)(F)F)cn3)CC2)CCOCC1 [Example A116] |
| 1620 nM | 38.2 nM | 191 nM | 0.17 nM | > 10000 nM | O=C(CCCCC1CCN(S(=O)(=O)C2(C(=O)NO)CCOCC2)CC1)N1CCN(c2ccccc2)CC1 [Example A98] |
| 1110 nM | 240 nM | 726 nM | 1.1 nM | > 10000 nM | CN(C(=O)CCCCC1CCN(S(=O)(=O)C2(C(=O)NO)CCOCC2)CC1)C1CCCCC1 [Example A96] |
| 721 nM | 0.9 nM | 0.33 nM | 0.17 nM | 2640 nM | O=C(NO)C1(S(=O)(=O)N2CCC(c3ccc(CCC(F)(F)C(F)(F)F)cn3)CC2)CC=CC1 [Example A101] |
| 708 nM | 190 nM | 1820 nM | 0.92 nM | > 10000 nM | CN(CC1CCCCC1)C(=O)CCCCC1CCN(S(=O)(=O)C2(C(=O)NO)CCOCC2)CC1 [Example A112] |
| 650 nM | 2.96 nM | 10.8 nM | 2.81 nM | 4540 nM | CCC(F)(F)c1ccc(C2CCN(S(=O)(=O)C3(C(=O)NO)CCOCC3)CC2)nc1 [Example A129] |
| 630 nM | 3.25 nM | 55.5 nM | 0.16 nM | 4520 nM | O=C(NCCCCC1CCN(S(=O)(=O)C2(C(=O)NO)CCOCC2)CC1)C(=O)c1cccs1 [Example A108] |
| 496 nM | 135 nM | 592 nM | 1.63 nM | > 10000 nM | O=C(CCCCC1CCN(S(=O)(=O)C2(C(=O)NO)CCOCC2)CC1)N1CCCC1 [Example A97] |
| 363 nM | 3.84 nM | 3.39 nM | 1.08 nM | 2880 nM | COC(=O)CCCCC1CCN(S(=O)(=O)C2(C(=O)NO)CCOCC2)CC1 [Example A103] |
| 356 nM | 50.8 nM | 241 nM | 0.79 nM | > 10000 nM | CN(Cc1ccco1)C(=O)CCCCC1CCN(S(=O)(=O)C2(C(=O)NO)CCOCC2)CC1 [Example A99] |
